ChEMBL document CHEMBL5291721, “A preclinical secondary pharmacology resource illuminates target-adverse drug reaction associations of marketed drugs” (Nat Commun, 2023)

Legend:
Histamine H1 receptor = Histamine H1 receptor (Homo sapiens, UniProt P35367)
Histamine H2 receptor = Histamine H2 receptor (Homo sapiens, UniProt P25021); type: functional, cell-based
Progesterone receptor [1] = target: T1, Progesterone receptor (Homo sapiens, UniProt P06401); type: functional
T1 sequence (P06401 whole entry): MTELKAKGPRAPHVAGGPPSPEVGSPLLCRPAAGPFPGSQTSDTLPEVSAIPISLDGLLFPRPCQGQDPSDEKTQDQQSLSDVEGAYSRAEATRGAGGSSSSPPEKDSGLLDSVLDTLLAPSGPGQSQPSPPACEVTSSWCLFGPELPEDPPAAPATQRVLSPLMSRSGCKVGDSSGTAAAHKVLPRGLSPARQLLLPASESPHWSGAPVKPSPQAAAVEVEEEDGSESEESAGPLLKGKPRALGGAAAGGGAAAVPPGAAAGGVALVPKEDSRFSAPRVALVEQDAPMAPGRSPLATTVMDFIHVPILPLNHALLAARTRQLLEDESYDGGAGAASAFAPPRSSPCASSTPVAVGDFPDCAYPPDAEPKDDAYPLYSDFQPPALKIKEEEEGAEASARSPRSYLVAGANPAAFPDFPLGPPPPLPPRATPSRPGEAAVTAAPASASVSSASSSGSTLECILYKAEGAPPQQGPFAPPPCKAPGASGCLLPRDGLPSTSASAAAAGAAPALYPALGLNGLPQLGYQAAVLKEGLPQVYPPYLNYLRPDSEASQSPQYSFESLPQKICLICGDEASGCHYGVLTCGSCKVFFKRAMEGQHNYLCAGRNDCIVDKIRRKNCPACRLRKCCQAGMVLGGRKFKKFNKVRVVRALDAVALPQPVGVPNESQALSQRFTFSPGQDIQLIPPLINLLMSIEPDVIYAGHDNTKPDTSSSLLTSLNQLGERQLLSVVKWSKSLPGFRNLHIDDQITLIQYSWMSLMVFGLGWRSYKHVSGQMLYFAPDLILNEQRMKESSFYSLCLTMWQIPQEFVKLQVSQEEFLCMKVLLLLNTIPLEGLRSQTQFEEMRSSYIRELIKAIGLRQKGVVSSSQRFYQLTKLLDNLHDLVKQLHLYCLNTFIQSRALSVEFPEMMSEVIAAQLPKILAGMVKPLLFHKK

[2] = target: T2, Gastrin/cholecystokinin type B receptor (Homo sapiens, UniProt P32239)
T2 sequence (P32239 whole entry): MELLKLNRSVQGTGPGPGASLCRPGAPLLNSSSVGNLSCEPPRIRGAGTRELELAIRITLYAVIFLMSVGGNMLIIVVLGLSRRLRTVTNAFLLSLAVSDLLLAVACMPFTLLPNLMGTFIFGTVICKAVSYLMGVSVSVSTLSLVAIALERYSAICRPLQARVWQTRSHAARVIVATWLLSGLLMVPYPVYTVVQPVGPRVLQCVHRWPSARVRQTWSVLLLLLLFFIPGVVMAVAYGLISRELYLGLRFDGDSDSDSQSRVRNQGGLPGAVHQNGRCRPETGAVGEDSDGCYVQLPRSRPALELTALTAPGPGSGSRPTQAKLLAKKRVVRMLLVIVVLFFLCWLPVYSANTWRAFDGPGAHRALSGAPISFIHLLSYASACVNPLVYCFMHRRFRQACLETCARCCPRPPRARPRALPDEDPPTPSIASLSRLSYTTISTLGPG

Mu-type opioid receptor = Mu-type opioid receptor (Homo sapiens, UniProt P35372)
Chain of Mu-type opioid receptor (P35372 whole entry): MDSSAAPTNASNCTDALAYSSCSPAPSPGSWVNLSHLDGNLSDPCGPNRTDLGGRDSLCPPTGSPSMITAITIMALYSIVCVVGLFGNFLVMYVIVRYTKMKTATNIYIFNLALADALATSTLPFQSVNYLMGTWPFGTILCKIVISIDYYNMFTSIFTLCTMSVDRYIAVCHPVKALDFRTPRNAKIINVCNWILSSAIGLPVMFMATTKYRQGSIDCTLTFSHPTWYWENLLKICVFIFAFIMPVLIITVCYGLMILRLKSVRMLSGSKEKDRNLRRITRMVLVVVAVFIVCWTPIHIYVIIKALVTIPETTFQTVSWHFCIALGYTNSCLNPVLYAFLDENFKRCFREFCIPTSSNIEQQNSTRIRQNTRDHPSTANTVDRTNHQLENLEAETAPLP

Progesterone receptor [3] = target: T1, Progesterone receptor
[4] = target: Prostaglandin G/H synthase 1 (Homo sapiens, UniProt P23219); type: functional
Chain of Prostaglandin G/H synthase 1 (P23219 whole entry): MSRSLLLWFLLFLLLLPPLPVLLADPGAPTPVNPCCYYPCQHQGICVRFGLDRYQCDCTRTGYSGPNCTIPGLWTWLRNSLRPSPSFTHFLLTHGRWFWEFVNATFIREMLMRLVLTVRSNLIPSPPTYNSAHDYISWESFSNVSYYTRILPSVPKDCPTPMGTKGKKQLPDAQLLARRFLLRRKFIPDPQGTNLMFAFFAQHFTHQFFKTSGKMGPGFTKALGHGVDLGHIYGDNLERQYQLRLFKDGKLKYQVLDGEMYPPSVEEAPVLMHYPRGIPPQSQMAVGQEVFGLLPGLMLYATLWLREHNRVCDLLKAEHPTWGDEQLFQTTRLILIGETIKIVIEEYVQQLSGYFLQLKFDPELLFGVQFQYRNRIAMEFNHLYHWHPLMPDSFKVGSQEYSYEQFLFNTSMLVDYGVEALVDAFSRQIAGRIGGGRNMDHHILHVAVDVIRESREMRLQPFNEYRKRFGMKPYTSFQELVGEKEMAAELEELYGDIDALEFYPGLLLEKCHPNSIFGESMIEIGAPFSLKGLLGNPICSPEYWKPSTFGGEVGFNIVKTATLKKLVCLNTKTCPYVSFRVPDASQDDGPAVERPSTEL

Histamine H3 receptor = Histamine H3 receptor (Homo sapiens, UniProt Q9Y5N1)
Chain of Histamine H3 receptor (Q9Y5N1 whole entry): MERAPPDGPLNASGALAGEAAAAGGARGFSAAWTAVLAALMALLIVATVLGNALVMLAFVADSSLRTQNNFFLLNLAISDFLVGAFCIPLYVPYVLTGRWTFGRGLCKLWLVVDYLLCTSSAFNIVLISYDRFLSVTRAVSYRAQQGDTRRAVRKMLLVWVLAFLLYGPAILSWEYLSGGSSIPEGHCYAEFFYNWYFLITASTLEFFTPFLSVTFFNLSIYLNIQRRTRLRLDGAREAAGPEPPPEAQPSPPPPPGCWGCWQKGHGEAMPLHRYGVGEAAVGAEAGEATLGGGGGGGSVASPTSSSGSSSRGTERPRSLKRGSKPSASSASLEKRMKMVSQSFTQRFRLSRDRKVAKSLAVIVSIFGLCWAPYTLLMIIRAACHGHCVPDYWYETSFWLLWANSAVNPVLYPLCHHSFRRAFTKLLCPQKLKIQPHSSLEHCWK

D(3) dopamine receptor = D(3) dopamine receptor (Homo sapiens, UniProt P35462)
Chain of D(3) dopamine receptor (P35462 whole entry): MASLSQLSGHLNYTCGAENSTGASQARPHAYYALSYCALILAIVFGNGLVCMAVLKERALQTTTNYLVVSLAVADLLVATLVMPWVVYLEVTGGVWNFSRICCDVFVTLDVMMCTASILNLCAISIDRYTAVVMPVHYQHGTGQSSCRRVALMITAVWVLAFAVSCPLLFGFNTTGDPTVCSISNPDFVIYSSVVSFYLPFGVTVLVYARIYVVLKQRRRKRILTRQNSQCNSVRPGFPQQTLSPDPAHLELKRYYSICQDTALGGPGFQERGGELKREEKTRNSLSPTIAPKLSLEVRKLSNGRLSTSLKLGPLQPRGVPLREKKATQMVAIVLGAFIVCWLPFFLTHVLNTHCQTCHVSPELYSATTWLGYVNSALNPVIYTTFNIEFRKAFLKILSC

[5] = target: T3, Alpha-1A adrenergic receptor (Homo sapiens, UniProt P35348); type: functional, cell-based
T3 sequence (P35348 whole entry): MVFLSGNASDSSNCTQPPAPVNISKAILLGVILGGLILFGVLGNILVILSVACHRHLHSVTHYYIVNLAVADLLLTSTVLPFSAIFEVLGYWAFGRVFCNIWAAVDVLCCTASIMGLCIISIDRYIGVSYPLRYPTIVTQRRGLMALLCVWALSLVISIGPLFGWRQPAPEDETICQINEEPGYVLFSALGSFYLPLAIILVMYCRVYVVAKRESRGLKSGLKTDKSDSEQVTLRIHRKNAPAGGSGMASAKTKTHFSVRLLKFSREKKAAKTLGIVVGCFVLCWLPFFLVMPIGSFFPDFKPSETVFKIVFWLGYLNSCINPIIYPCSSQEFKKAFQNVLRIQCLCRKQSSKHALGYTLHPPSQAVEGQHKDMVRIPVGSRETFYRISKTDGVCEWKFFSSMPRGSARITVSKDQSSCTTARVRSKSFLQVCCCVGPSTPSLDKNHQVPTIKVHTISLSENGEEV

[6] = target: 3',5'-cyclic-AMP phosphodiesterase 4A (Homo sapiens, UniProt P27815); type: functional
Chain of 3',5'-cyclic-AMP phosphodiesterase 4A (P27815 whole entry): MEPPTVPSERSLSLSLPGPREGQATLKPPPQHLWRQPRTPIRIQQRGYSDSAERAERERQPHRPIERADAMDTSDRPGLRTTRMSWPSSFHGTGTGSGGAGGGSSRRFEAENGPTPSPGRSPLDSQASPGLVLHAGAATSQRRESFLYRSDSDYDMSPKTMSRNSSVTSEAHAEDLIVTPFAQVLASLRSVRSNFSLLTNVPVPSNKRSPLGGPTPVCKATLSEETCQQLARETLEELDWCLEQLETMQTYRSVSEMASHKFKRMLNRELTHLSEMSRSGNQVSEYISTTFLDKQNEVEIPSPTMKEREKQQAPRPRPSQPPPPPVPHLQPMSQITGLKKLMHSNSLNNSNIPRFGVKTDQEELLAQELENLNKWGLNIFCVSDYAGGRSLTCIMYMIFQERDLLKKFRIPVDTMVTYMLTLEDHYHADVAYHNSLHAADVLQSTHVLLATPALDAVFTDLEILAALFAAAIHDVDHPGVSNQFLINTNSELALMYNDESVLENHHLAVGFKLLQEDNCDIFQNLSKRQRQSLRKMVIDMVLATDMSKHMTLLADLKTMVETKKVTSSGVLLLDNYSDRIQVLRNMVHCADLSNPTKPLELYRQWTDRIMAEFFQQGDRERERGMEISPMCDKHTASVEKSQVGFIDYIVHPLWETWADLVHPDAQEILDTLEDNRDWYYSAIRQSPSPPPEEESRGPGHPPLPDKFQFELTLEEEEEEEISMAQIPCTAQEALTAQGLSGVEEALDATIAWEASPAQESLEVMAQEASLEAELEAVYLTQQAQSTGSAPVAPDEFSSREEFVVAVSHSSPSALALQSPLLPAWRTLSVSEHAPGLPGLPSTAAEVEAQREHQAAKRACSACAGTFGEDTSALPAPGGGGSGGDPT

Thromboxane A2 receptor = target: T4, Thromboxane A2 receptor (Homo sapiens, UniProt P21731); type: functional, cell-based
T4 sequence (P21731 whole entry): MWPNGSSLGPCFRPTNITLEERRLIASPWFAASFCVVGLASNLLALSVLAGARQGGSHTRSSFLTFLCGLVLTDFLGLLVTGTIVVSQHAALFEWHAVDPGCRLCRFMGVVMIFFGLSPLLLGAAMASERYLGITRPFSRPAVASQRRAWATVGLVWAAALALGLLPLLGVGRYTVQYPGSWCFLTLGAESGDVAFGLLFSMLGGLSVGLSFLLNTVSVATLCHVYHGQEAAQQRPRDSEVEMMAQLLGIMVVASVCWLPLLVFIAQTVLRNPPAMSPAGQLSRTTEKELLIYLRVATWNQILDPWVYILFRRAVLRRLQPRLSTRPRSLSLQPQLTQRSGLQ
Further: assay procedure not described here.

Chain of Histamine H1 receptor (P35367 whole entry): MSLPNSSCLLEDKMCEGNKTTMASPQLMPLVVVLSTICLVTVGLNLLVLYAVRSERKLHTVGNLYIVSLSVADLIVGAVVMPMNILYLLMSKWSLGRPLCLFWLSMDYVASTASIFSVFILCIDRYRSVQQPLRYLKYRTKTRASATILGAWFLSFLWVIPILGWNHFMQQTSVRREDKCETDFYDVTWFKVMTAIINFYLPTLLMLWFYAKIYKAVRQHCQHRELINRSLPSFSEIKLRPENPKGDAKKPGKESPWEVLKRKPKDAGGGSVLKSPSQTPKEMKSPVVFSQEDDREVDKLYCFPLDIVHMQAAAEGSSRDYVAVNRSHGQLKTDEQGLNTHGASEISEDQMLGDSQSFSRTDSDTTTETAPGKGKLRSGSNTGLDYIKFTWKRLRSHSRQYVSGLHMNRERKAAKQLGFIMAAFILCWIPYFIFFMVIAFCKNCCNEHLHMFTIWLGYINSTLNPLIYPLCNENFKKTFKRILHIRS
Chain of Histamine H2 receptor (P25021 whole entry): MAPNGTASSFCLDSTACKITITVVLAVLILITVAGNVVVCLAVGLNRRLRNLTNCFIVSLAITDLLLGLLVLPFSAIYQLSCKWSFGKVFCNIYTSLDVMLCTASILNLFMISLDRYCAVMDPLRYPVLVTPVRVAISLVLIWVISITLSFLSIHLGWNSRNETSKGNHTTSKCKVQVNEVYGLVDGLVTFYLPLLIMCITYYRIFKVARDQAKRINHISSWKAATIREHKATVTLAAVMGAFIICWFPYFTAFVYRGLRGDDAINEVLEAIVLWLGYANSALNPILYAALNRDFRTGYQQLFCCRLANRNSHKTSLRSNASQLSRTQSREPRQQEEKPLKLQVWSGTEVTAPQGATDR

Row | Structure (SMILES) | AC50 (Histamine H1 receptor) [µM] | AC50 (Histamine H2 receptor) [µM] | AC50 (Progesterone receptor [1]) [µM] | AC50 [2] [µM] | AC50 (Mu-type opioid receptor) [µM] | AC50 (Progesterone receptor [3]) [µM] | AC50 [4] [µM] | AC50 (Histamine H3 receptor) [µM] | AC50 (D(3) dopamine receptor) [µM] | AC50 [5] [µM] | AC50 [6] [µM] | AC50 (Thromboxane A2 receptor) [µM]
1 | Cc1c(C(=O)NN2CCCCC2)nn(-c2ccc(Cl)cc2Cl)c1-c1ccc(Cl)cc1 [RIMONABANT] | 22 | > 10 | > 30 | 29.6 |  |  |  |  |  |  |  | 
2 | C[N+](C)(C)CCO [CHOLINE] |  |  |  |  | > 30 | > 30 | > 30 | > 30 | > 30 | > 30 | > 30 | > 30
3 | COC(c1ccccc1)(c1ccccc1)[C@H](Oc1nc(C)cc(C)n1)C(=O)O [AMBRISENTAN] |  |  |  |  | > 30 | > 30 | > 30 | > 30 | > 30 | > 30 | > 30 | > 30
4 | OCCN1C[C@H](O)[C@@H](O)[C@H](O)[C@H]1CO [MIGLITOL] |  |  |  |  | > 30 | > 30 | > 30 | > 30 | > 30 | > 30 | > 30 | > 30
5 | C1CCC(C(CC2CCCCN2)C2CCCCC2)CC1 (configuration not stated) [PERHEXILINE] |  |  | > 30 |  |  |  |  |  |  |  |  | 
6 | CCCCCCOc1nsnc1C1=CCCN(C)C1 [XANOMELINE] |  |  |  |  | > 30 | > 30 | > 30 | 3.6 | 0.273 |  | 28.5 | > 30
7 | COCc1c(C(C)C)nc(C(C)C)c(/C=C/[C@@H](O)C[C@@H](O)CC(=O)O)c1-c1ccc(F)cc1 [CERIVASTATIN] |  |  |  |  | > 30 | > 30 | > 30 | > 30 | > 30 | 25.2 | 21.5 | 20.1
8 | C[N+]1(C)CCC(OC(=O)C(O)(c2ccccc2)C2CCCC2)C1 (configuration not stated) [GLYCOPYRRONIUM BROMIDE] |  |  | > 10 | > 30 |  | > 30 |  |  |  |  | > 30 | > 30
9 | COc1cc(NC(C)CCCN)c2ncccc2c1 (configuration not stated) [PRIMAQUINE] |  |  |  | > 30 |  | 15.4 | 3.95 |  |  |  | 16.2 | > 30
10 | CN(C)CC(c1ccc(O)cc1)C1(O)CCCCC1 (configuration not stated) [DESVENLAFAXINE] |  |  |  |  | 28.4 | > 30 | > 30 | > 30 |  | > 30 | > 30 | > 30
11 | C[C@H]1CNCCc2ccc(Cl)cc21 [LORCASERIN] | 28 |  | > 30 |  |  |  |  |  |  |  |  | 
12 | CN(C)CCN1C(=O)c2ccccc2N(C)c2ccccc21 [DIBENZEPIN] |  |  |  |  | 28.8 | > 30 | > 30 | > 30 | 16.3 |  | > 30 | > 30
13 | CCc1oc2ccccc2c1C(=O)c1cc(I)c(O)c(I)c1 [BENZIODARONE] |  |  |  |  | 9.64 | 4.27 | 8.33 | 28.3 | 8.59 |  | 2.37 | > 1
14 | COc1ccc(CC(C)(C)NC[C@H](O)c2cc(O)cc3c2OCC(=O)N3)cc1 [OLODATEROL] | > 30 |  | > 30 |  |  |  |  |  |  |  |  | 
15 | CN(C)CCn1nnnc1SCC1=C(C(=O)O)N2C(=O)[C@@H](NC(=O)Cc3csc(N)n3)[C@H]2SC1 [CEFOTIAM] |  |  |  |  | > 30 | > 30 | > 30 | > 30 | > 30 | > 30 | > 30 | > 30
16 | Cc1nc([N+](=O)[O-])cn1-c1ccc([N+](=O)[O-])cc1 [NITREFAZOLE] | > 30 | > 30 | > 30 | > 30 |  |  |  |  |  |  |  | 
17 | CN(C)S(=O)(=O)c1ccc2c(c1)N(CCCN1CCC(CCO)CC1)c1ccccc1S2 [PIPOTIAZINE] |  |  |  |  | 3.4 | > 30 | > 30 | > 30 | 0.003 | 0.0032 | > 30 | 15.7
18 | CC(C)(S)[C@@H](N)C(=O)O [PENICILLAMINE] |  |  |  |  | > 30 | > 30 |  | > 30 | > 30 | > 30 | > 30 | > 30
19 | CC(=O)NCCCS(=O)(=O)O [ACAMPROSATE] | > 30 | > 30 | > 30 | > 30 |  |  |  |  |  |  |  | 
20 | CC(C)Nc1ncccn1 [ISAXONINE] |  |  |  |  | > 30 | > 30 | > 30 | > 30 | > 30 | > 30 | > 30 | > 30
21 | c1cnc(N2CCN(Cc3ccc4c(c3)OCO4)CC2)nc1 [PIRIBEDIL] | > 30 |  | > 30 |  |  |  |  |  |  |  |  | 
22 | N[C@@H]1[C@H]2CN(c3nc4c(cc3F)c(=O)c(C(=O)O)cn4-c3ccc(F)cc3F)C[C@@H]12 [TROVAFLOXACIN] |  |  | > 30 |  |  |  |  |  |  |  |  | 
23 | CN(C)CCC=C1c2ccccc2C(C)(C)c2ccccc21 | 0.0369 |  | > 30 |  |  |  |  |  |  |  |  | 
24 | CNC(=O)c1ccccc1Sc1ccc2c(/C=C/c3ccccn3)n[nH]c2c1 [AXITINIB] | > 30 |  | > 30 |  |  |  |  |  |  |  |  | 
25 | CNC1Cc2ccccc2N(C)c2ccccc21 (configuration not stated) [METAPRAMINE] | 0.34 |  | > 30 |  |  |  |  |  |  |  |  | 
26 | COc1cc2nc(N(C)CCCNC(=O)C3CCCO3)nc(N)c2cc1OC (configuration not stated) [ALFUZOSIN] | > 30 | > 30 | > 30 | > 30 |  |  |  |  |  |  |  | 
27 | Nc1nc(NC2CC2)c2ncn([C@H]3C=C[C@@H](CO)C3)c2n1 [ABACAVIR] | > 30 | > 30 | > 30 | > 30 |  |  |  |  |  |  |  | 
28 | N[C@H](C(=O)O)[C@H](O)c1ccc(O)c(O)c1 [DROXIDOPA] |  |  |  |  | > 30 | > 30 | > 30 | > 30 | > 30 |  | > 30 | > 30
29 | CN1C(C(=O)Nc2ccccn2)=C(O)c2sc(Cl)cc2S1(=O)=O [LORNOXICAM] | > 10 | > 10 |  | > 30 |  |  |  |  |  |  |  | 
30 | C=C[C@H]1C[N@@]2CC[C@H]1C[C@H]2[C@H](O)c1ccnc2ccc(OC)cc12 [QUININE] |  |  |  |  | 8.38 | > 30 | > 10 | > 30 | > 30 |  | > 30 | > 30
